The values below come from patent US20250188084A1, “COMPOUNDS AND METHODS FOR MODULATING CDK9 ACTIVITY” (KRONOS BIO, INC., priority 2020, published 2025).

A word on the DC50: it is the concentration giving 50% degradation.

Test [1] concerns the target T1, CDK9 (Homo sapiens, UniProt P50750).
T1 construct: NCIH211 cells with endogenously tagged N-terminal CDK9-HiBit; endogenous in cells; host or cells: NCIH211 cells (endogenous CDK9 locus tagged with HiBit)
The test can be described thus: CDK9 degradation by HiBit assay, NCIH1048 cells. It counts as cell-based. Particulars: NCIH1048 cells with endogenously tagged N-terminal CDK9-HiBit, 24 hours incubation, read-out: HiBit-NCIH1048.3 DC50. Here is the method: (§1) Exemplary compounds of the invention were tested for degradation of CDK9. The compounds were tested in 10-dose DC50 duplicate mode with a 3-fold serial dilution starting at 10 μM by HiBit assay (Promega, Inc) as a direct measurement of CDK9 presence, with incubation time of 24 hours using either NCIH211 cells with endogenously tagged N-terminal CDK9-HiBit or NCIH1048 cells with endogenously tagged N-terminal CDK9-HiBit. A control compound (THAL-SNS-032, CAS 2139287-33-3) was tested in 10-dose DC50 mode with 3-fold serial dilution starting at 10 μM. Data was normalized to positive (medium only) and negative (cells with no treatment) controls and curve fits were analyzed with CDK9 as % response vs. log [compound concentration] using a 4-parameter logistic model by GraphPad software. For Table 2: A is <100, B is <1000 C is <10,000, D is >10,000 and ND is Not Determined.
(In general: HiBiT is a short tag that completes a luciferase, so light tracks the accessible tagged protein.)

For test [2], the target named is T1, CDK9. The test can be described thus: CDK9 degradation by HiBit assay, NCIH211 cells. It is filed as cell-based. Particulars: NCIH211 cells with endogenously tagged N-terminal CDK9-HiBit, 24 hours incubation, read-out: HiBit-NCIH211.2 DC50. As for the experimental part: as §1
The mark [3] stands for this setting: numeric value (control compound).

Structures are written as SMILES.

T1 sequence (P50750 whole entry): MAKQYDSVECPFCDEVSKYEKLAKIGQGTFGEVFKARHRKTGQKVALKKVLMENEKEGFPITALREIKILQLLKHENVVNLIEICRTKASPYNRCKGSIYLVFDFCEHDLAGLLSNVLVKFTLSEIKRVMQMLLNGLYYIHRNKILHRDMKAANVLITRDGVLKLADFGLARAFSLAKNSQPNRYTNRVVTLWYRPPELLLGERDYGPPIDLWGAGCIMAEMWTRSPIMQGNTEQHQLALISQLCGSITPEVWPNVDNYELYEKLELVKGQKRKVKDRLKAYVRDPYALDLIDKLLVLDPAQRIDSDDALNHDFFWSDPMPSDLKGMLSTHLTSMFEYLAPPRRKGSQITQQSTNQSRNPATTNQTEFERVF
T1 sequence (O60563 whole entry partner): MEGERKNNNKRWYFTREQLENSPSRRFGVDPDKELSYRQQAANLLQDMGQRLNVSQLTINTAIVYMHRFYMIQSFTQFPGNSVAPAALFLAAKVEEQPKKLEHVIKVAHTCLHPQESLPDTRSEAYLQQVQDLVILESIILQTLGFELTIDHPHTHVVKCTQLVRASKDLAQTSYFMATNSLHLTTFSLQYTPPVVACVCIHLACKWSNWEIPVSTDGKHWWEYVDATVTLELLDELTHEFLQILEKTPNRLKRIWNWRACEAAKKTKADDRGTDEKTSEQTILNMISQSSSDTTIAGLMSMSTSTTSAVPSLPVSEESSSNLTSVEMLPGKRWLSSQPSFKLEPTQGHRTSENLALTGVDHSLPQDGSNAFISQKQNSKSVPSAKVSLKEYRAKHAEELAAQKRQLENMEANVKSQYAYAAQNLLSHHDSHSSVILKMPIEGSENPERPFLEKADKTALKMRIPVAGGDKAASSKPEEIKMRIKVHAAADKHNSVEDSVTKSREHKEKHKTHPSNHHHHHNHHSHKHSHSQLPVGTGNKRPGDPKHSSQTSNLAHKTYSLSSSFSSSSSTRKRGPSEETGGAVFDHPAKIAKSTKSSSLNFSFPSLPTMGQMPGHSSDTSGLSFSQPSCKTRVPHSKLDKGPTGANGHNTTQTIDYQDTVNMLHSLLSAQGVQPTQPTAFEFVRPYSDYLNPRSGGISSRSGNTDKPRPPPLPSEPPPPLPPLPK

For the molecule `CCC(CC)c1cc(N[C@H]2CC[C@H](NCC(=O)NCCCc3cn(CCOCCOCCOCCOCCOc4cc(-c5scnc5C)ccc4CNC(=O)[C@@H]4C[C@@H](O)CN4C(=O)[C@H](C(C)C)N4Cc5ccccc5C4=O)nn3)C2)n2ncc(Cl)c2n1` [Compound 54.0], the DC50 in test [1] and in test [2] was less than 10000 nM each time.
`C/C=C(\CC)c1cc(N[C@H]2CC[C@H](NCC(=O)N3CCN(CCCCNc4cccc5c4C(=O)N(C4CCC(=O)NC4=O)C5=O)CC3)C2)n2nccc2n1` (stereo partly drawn) [Compound 56.0]: the DC50 in test [1] and in test [2] was less than 100 nM each time.
`C/C=C(\CC)c1cc(N[C@H]2CC[C@H](NCC(=O)N3CCN(CCCNc4cccc5c4C(=O)N(C4CCC(=O)NC4=O)C5=O)CC3)C2)n2ncc(Cl)c2n1` (stereo partly drawn) [Compound 57.0, 4-[3-[4-[2-[[(1S,3S)-3-[[3-chloro-5-[(E)-1-ethylprop-1-enyl]pyrazolo[1,5-a]pyrimidin-7-yl]amino]cyclopentyl]amino]acetyl]piperazin-1-yl]propylamino]-2-(2,6-dioxo-3-piperidyl)isoindoline-1,3-dione]: the DC50 in test [1] and in test [2] was less than 100 nM throughout.
In the case of `C/C=C(\CC)c1cc(N[C@H]2CC[C@H](NCC(=O)N3CCN(CCNc4cccc5c4C(=O)N(C4CCC(=O)NC4=O)C5=O)CC3)C2)n2ncc(Cl)c2n1` (stereo partly drawn) [Compound 58.0, 4-[2-[4-[2-[[(1S,3S)-3-[[3-chloro-5-[(E)-1-ethylprop-1-enyl]pyrazolo[1,5-a]pyrimidin-7-yl]amino]cyclopentyl]amino]acetyl]piperazin-1-yl]ethylamino]-2-(2,6-dioxo-3-piperidyl)isoindoline-1,3-dione], the half-maximal degradation concentration (DC50) in test [1] and in test [2] was less than 100 nM throughout.
Take `C/C=C(\CC)c1cc(N[C@H]2CC[C@H](NCC(=O)N3CCN(CCCCNc4cccc5c4C(=O)N(C4CCC(=O)NC4=O)C5=O)CC3)C2)n2ncc(Cl)c2n1` (stereo partly drawn) [Compound 59.0, 4-[4-[4-[2-[[(1S,3S)-3-[[3-chloro-5-[(E)-1-ethylprop-1-enyl]pyrazolo[1,5-a]pyrimidin-7-yl]amino]cyclopentyl]amino]acetyl]piperazin-1-yl]butylamino]-2-(2,6-dioxo-3-piperidyl)isoindoline-1,3-dione]: the half-maximal degradation concentration (DC50) in test [1] and in test [2] was less than 100 nM in each case.
In the case of `CC(C)(C)c1cnc(CSc2cnc(NC(=O)C3CCN(CC(=O)NCCOCCOCCOCCNc4cccc5c4C(=O)N(C4CCC(=O)NC4=O)C5=O)CC3)s2)o1` (stereo not drawn) [THAL-SNS-032, reference compound], the DC50 in test [1] (setting [3]) worked out at 11 nM; in test [2] (setting [3]), 53 nM.
